The values below come from patent US6310095A, “Inhibitors of protein isoprenyl transferases” (University of Pittsburgh, priority 1998, dated 2001).

Structures can show the parent of a compound that is named as a salt.

Broadly, the inhibition is the drop in the measured response relative to a control, in per cent.

The first experiment concerns the target T1, protein farnesyltransferase (Rattus norvegicus, UniProt Q02293+Q04631).
T1 construct: Rat brain protein farnesyltransferase activity is measured; from tissue; host or cells: rat brain; purified according to Reiss et al., Cell 62:81-88 (1990), steps one through three
Briefly: in vitro inhibition of protein farnesyltransferase (scintillation proximity assay, biotin-K Ras B fragment). The class given is biochemical. The conditions noted are these: at 1 × 10^-5 M. From the text: The ability of the compounds of the invention to inhibit protein farnesyltransferase or protein geranylgeranyltransferase can be measured according to the method of Moores, et al., J. Biol. Chem. 266: 14603 (1991) or the method of Vogt, et al., J. Biol. Chem. 270:660-664 (1995). In addition, procedures for determination of the inhibition of farnesylation of the oncogene protein Ras are described by Goldstein, et al., J. Biol. Chem., 266:15575-15578 (1991) and by Singh in U.S. Pat. No. 5,245,061.
In addition, in vitro inhibition of protein farnesyltransferase may be measured by the following procedure. Rat brain protein farnesyltransferase activity is measured using an Amersham Life Science commercial scintillation proximity assay kit and substituting a biotin-K Ras B fragment (biotin-[…]CO2 H), 0.1 mM final concentration, for the biotin-lamin substrate provided by Amersham. The enzyme is purified according to Reiss, Y., et al., Cell, 62: 81-88 (1990), utilizing steps one through three.
The % inhibition of protein farnesyltransferase was determined for representative compounds of the invention.
`COc1ccc(NCc2ccc(C(=O)N[C@@H](CCSC)C(=O)O)c(-c3ccccc3)c2)cc1` [Example 690] showed an inhibition at 10 µM of 61%.

On to `CSCC[C@H](NC(=O)c1ccc(CNc2ccc(F)cc2)cc1-c1ccccc1)C(=O)O` [Example 687], for which the inhibition at 10 µM is 78%.

Take `CSCC[C@H](NC(=O)c1ccc(CNc2ccc(-c3ccccc3)cc2)cc1-c1ccccc1)C(=O)O` [Example 700]: at 10 µM the inhibition was 68%.

`CSCC[C@H](NC(=O)c1ccc(CNc2ccccc2N(C)C)cc1-c1ccccc1)C(=O)O` [Example 672] registered an inhibition at 10 µM of 48%.

`CSCC[C@H](NC(=O)c1ccc(CNc2nnc(C)s2)cc1-c1ccccc1)C(=O)O` [Example 371] showed an inhibition at 10 µM of 66%.

Compound `C=C[C@@H](CC1CCCCC1)NCc1ccc(C(=O)N[C@@H](CCSC)C(=O)O)c(-c2ccccc2)c1` [Example 664] returned an inhibition at 10 µM of 75%.

With `COc1cc(I)c(C(=O)Nc2ccc(C(=O)N[C@@H](CCSC)C(=O)O)c(-c3ccccc3)c2)cc1OC` [Example 756], the inhibition at 10 µM worked out at 47%.

The compound `CSCC[C@H](NC(=O)c1ccc(CNc2nccs2)cc1-c1ccccc1)C(=O)O` [Example 374] came in with an inhibition at 10 µM of 61%.

The experiment is the same for the next values; noted with them: at 1 × 10^-6 M.
As for `CSCC[C@H](NC(=O)c1ccc(CCc2ccc3ccccc3c2)cc1-c1ccccc1C)C(=O)O` [Example 468], the “% inhibition of farnesyltransferase” value turned out to be 96%.

For the compound `Cc1ccccc1-c1cc(CNC(C)(C)Cc2ccccc2)ccc1C(=O)N[C@@H](CCS(C)(=O)=O)C(=O)O` [Example 311], the “% inhibition of farnesyltransferase” value is 97%.

Take `CSCC[C@H](NC(=O)c1ccc(CN(C(C)C)C2(Cc3ccccc3)CCCC2)cc1-c1ccccc1C)C(=O)O` [Example 343]: the “% inhibition of farnesyltransferase” value worked out at 72%.

For `CSCC[C@H](NC(=O)c1cc(Cc2ccccc2)c(COCc2ccccc2)cc1-c1ccccc1C)C(=O)O` [Example 923], the “% inhibition of farnesyltransferase” value is given as 78%.

With `CSCC[C@H](NC(=O)c1ccc(CN(C)C(CC2CCCCC2)C(=O)N2CCCCC2)cc1-c1ccccc1C)C(=O)O` (stereo partly shown) [Example 301], the “% inhibition of farnesyltransferase” value is 98%.

As to `Cc1ccccc1-c1cc(COCc2ccccc2)ccc1C(=O)N[C@@H](CCS(C)(=O)=O)C(=O)O` [Example 576], the “% inhibition of farnesyltransferase” value is listed as 88%.

With `CSCC[C@H](NC(=O)c1ccc(CN(C(C)C)C2(CC3CCCCC3)CCCC2)cc1-c1ccccc1C)C(=O)O` [Example 344], the “% inhibition of farnesyltransferase” value was found to be 95%.

Consider `CSCC[C@H](NC(=O)c1ccc(SCCc2ccccc2)cc1-c1ccccc1C)C(=O)O` [Example 498], for which the “% inhibition of farnesyltransferase” value is recorded as 98%.

As for `CSCC[C@H](NC(=O)c1ccc(CN2CCN(c3ccccc3)CC2)cc1-c1ccccc1C)C(=O)O` [Example 867], the “% inhibition of farnesyltransferase” value amounted to 71%.

For the compound `CSCC[C@H](NC(=O)c1ccc(CNC(C)(C)Cc2ccccc2)cc1-c1ccccc1C)C(=O)O` [Example 307], the “% inhibition of farnesyltransferase” value was 82%.

With `CSCC[C@H](NC(=O)c1ccc(CCc2cccc3ccccc23)cc1-c1ccccc1C)C(=O)[O-].[Li+]` [Example 467], the “% inhibition of farnesyltransferase” value was found to be 97%.

As to `CSCC[C@H](NC(=O)c1ccc(COCc2ccc(-c3ccc(F)cc3)o2)cc1-c1cccc2ccccc12)C(=O)[O-].[Li+]` [Example 868], the “% inhibition of farnesyltransferase” value was determined as 89%.

Still in this experiment, the particulars now being: at 1 × 10^-6 M; read-out: % inhibition of farnesyltransferase.
As to `CSCC[C@H](NC(=O)c1ccc(NCC2CNCCN2)cc1-c1ccccc1)C(=O)O` (stereo partly shown) [Example 286, [4-(2-piperazinylmethylamino)-2-phenylbenzoyl]methionine], the inhibition at 1 µM turned out to be 84%.

On to `CSCC[C@H](NC(=O)c1ccc(CN(Cc2ccccc2)c2ccccc2C(C)=O)cc1-c1ccccc1C)C(=O)O` [Example 844, N-[4-N-(N-benzyl-N-(2-acetylphenyl)aminomethyl)-2-(2-methylphenyl)benzoyl]methionine lithium salt], for which the inhibition at 1 µM came to 92%.

As for `CSCC[C@H](NC(=O)c1ccc(CN[C@@H](CC2CCCCC2)[C@@H](O)[C@@H](O)CC(C)C)cc1-c1ccccc1)C(=O)O` [Example 716], the inhibition at 1 µM came out at 69%.

With `COC(=O)c1cscc1NCc1ccc(C(=O)N[C@@H](CCSC)C(=O)O)c(-c2ccccc2C)c1` [Example 724], the inhibition at 1 µM turned out to be 87%.

In the case of `CSCC[C@H](NC(=O)c1ccc(CN(Cc2ccco2)C(C)C)cc1-c1ccccc1C)C(=O)O` [Example 831, N-[4-N-(furan-2-ylmethyl)-N-isopropylaminomethyl-2-(2-methylphenyl)benzoyl]methionine lithium salt], the inhibition at 1 µM was determined as 92%.

For the compound `CSCC[C@H](NC(=O)c1ccc(CNc2cccc(I)c2)cc1-c1ccccc1)C(=O)O` [Example 677], the inhibition at 1 µM was 37%.

Consider `CSCC[C@H](NC(=O)c1ccc(NCC(CO)Cc2ccccc2)cc1-c1ccccc1C)C(=O)O` (stereo partly shown) [Example 476, N-[4-N-(2-benzyl-3-hydroxypropyl)amino-2-(2-methylphenyl)benzoyl]methioninesodium salt], for which the inhibition at 1 µM is 91%.

As for `CSCC[C@H](NC(=O)c1ccc(CN(CCCc2ccccc2)c2ccccc2)cc1-c1ccccc1C)C(=O)O` [Example 508], the inhibition at 1 µM came to 95%.

Consider `CSCC[C@H](NC(=O)c1ccc(CN(CCO)c2ccccc2)cc1-c1ccccc1)C(=O)O` [Example 505], for which the inhibition at 1 µM is 72%.

Staying with this experiment, now noted: at 1 × 10^-7 M.
Take `CSCC[C@H](NC(=O)c1ccc(COCc2ccc(C)o2)cc1-c1ccccc1C)C(=O)O` [Example 532]: the “% inhibition of farnesyltransferase” value turned out to be 88%.

`CSCC[C@H](NC(=O)c1ccc(CCc2ccc(Oc3ccccc3)cc2)cc1-c1ccccc1C)C(=O)[O-].[Li+]` [Example 462]: the “% inhibition of farnesyltransferase” value stood at 91%.

With `CSCC[C@H](NC(=O)c1ccc(COCCc2ccco2)cc1-c1ccccc1C)C(=O)[O-].[Li+]` [Example 531], the “% inhibition of farnesyltransferase” value is 74%.

For `COc1ncc(COCc2ccc(C(=O)N[C@@H](CCSC)C(=O)O)c(-c3ccccc3C)c2)s1` [Example 896], the “% inhibition of farnesyltransferase” value is recorded as 96%.

On to `CSCC[C@H](NC(=O)c1ccc(COCc2cncs2)cc1-c1ccccc1C)C(=O)[O-].[Li+]` [Example 539], for which the “% inhibition of farnesyltransferase” value turned out to be 89%.

Turning to `CSCC[C@H](NC(=O)c1ccc(COCc2cnc(-c3ccc(Cl)cc3)o2)cc1-c1ccccc1C)C(=O)[O-].[Li+]` [Example 894], the “% inhibition of farnesyltransferase” value is 89%.

As for `CSCC[C@H](NC(=O)c1ccc(CSc2nc(C)cc(C)n2)cc1-c1ccccc1C)C(=O)O` [Example 743], the “% inhibition of farnesyltransferase” value turned out to be 51%.

As for `CSCC[C@H](NC(=O)c1ccc(CCc2ccc(Oc3ccccc3Cl)cc2)cc1-c1ccccc1C)C(=O)O` [Example 855], the “% inhibition of farnesyltransferase” value amounted to 92%.

Staying with this experiment, now noted: at 1 × 10^-7 M; read-out: % inhibition of farnesyltransferase.
For the compound `CSCC[C@H](NC(=O)c1ccc(CN(c2ccccc2)S(=O)(=O)c2ccccc2)cc1-c1ccccc1C)C(=O)O` [Example 769, N-[4-N-(N-phenyl-N-benzenesulfonylaminomethyl)-2-(2-methylphenyl)benzoyl]methionine lithium salt], the inhibition at 0.1 µM amounted to 90%.

With `CSCC[C@H](NC(=O)c1ccc(CN[C@H](CSc2ccccc2)CC2CCCCC2)cc1-c1ccccc1C)C(=O)O` [Example 623, N-[4-(3-cyclohexyl-1-phenylthiopropan-2-ylaminomethyl)-2-(2-methylphenyl)benzoyl]methionine Lithium Salt], the inhibition at 0.1 µM stood at 96%.

With `CSCC[C@H](NC(=O)c1ccc(CNc2ccc(Oc3ccccc3)cc2)cc1-c1ccccc1C)C(=O)O` [Example 864, N-[4-N-(4-phenoxyphenyl)aminomethyl-2-(2-methylphenyl)benzoyl]methionine], the inhibition at 0.1 µM was 84%.

The experiment is the same for the next values; noted with them: at 1 × 10^-8 M.
Take `CSCC[C@H](NC(=O)c1ccc(CO[C@H](CSc2ccccc2)CC2CCCCC2)cc1-c1ccccc1C)C(=O)O` [Example 884]: the “% inhibition of farnesyltransferase” value came out at 94%.

Consider `CSCC[C@H](NC(=O)c1ccc(CN2CCC[C@H]2COCC2CCCCC2)cc1-c1ccccc1C)C(=O)O` [Example 992], for which the “% inhibition of farnesyltransferase” value is reported as 93%.

The same experiment, now with this note: at 1 × 10^-8 M; read-out: % inhibition of farnesyltransferase.
As for `CSCC[C@H](NC(=O)c1ccc(CN(Cc2cncs2)S(=O)(=O)c2ccc(C)cc2)cc1-c1ccccc1C)C(=O)O` [Example 877], the inhibition at 0.01 µM came out at 68%.

Turning to `CSCC[C@H](NC(=O)c1ccc(CN(C(C)=O)C(CC2CCCCC2)CC2CCCCC2)cc1-c1ccccc1C)C(=O)O` [Example 909, N-[4-(N-acetyl-N-(1,3-Dicyclohexylpropan-2-yl)aminomethyl)-2-(2-methylphenyl)-benzoyl]methionine], the inhibition at 0.01 µM worked out at 79%.

Regarding `CSCC[C@H](NC(=O)c1ccc(CN(CCC2CCCCC2)C(=O)c2ccccc2)cc1-c1ccccc1C)C(=O)O` [Example 762, N-[4-N-Benzoyl-N-2-cyclohexylethylaminomethyl-2-(2-methylphenyl)benzoyl]methionine lithium salt], the inhibition at 0.01 µM is 84%.

Staying with this experiment, now noted: read-out: % inhibition of farnesyltransferase.
Take `CSCC[C@H](NC(=O)c1ccc(CN(Cc2ccccc2)c2cccc(SC)c2)cc1-c1ccccc1C)C(=O)O` [Example 851, N-[4-(N-benzyl-N-(3-methylthiophenyl)aminomethyl)-2-(2-methylphenyl)benzoyl]methionine lithium salt]: the inhibition at 0.01 µM stood at 82%.
